Source: US20250332112A1, “IONIZABLE CATIONIC LIPIDS FOR LIPID NANOPARTICLES” (GENEVANT SCIENCES GMBH, priority 2022, published 2025)

Experiments:
[1] = Particle characteristics of LNPs containing luciferase mRNA and novel ionizable lipids; format: physicochemical
In short: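 LNPs made from PEG-lipid, ionizable lipid, cholesterol and phospholipid in ethanol, T-mixed with luciferase mRNA in 100 mM acetate pH 5. Products were dialysed, concentrated, and dialysed into 5 mM Tris, 10% sucrose, pH 8, then 0.2 μm filtered. mRNA was measured by RiboGreen, and size and polydispersity by dynamic light scattering on a Zetasizer.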

[2] = Particle characteristics of LNPs containing EGFP mRNA and novel ionizable lipids; format: physicochemical; details: EGFP mRNA LNP 1.6:54.6:32.8:10.9
In short: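 LNPs of PEG-lipid, ionizable lipid, cholesterol and phospholipid in ethanol were mixed 1:1 with mRNA in 100 mM acetate pH 5 via T-junction, diluted in PBS, dialysed, concentrated to ~0.6 mg/mL and exchanged into 5 mM Tris, 10% sucrose, pH 8. Size and polydispersity by Zetasizer; nucleic acid by RiboGreen.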

[3] = Parent ionizable lipid remaining in liver at 6 h after luciferase mRNA LNP (LC-MS); format: in vivo; details: 6 h after IV 0.5 mg/kg Luciferase mRNA LNP
[4] = Lipid clearance from liver over time after human OTC mRNA LNP (LC-MS); format: in vivo; details: IV 0.5 mg/kg human OTC mRNA LNP, male C57BL/6 mice (n = 4)
Method: LNP formulations encapsulating ornithine transcarbamylase mRNA were injected intravenously at the specified dose levels to male C57BL/6 mice (6-8 weeks old).
(§1) Liver tissues were treated with PBS and homogenized with a FastPrep machine, 3 cycles of 5 m/s×15 s. Homogenates from the PBS-treated control animals was pooled and used for standard curve preparation. Samples were extracted into a deep well plate with 250 μL of an internal suitability standard. Plates were centrifuged for 15 min at 4° C. and 2000 rpm. Analysis was performed using an Agilent 6520 QTOF coupled to an Agilent 1290 UHPLC, using reverse-phase LC separation. Quantitation of the ionizable lipid was by MS/MS against a calibration curve spiked into appropriately matched blank matrix. Calibration used a similar class of synthetic lipid as internal standard.
At various timepoints post-dose, lipid levels were assessed in the liver. Some novel ionizable lipids reported more rapid clearance rates compared to the benchmark (Table 19).

[5] = test system: EGFP expression in the liver; test: Dose response of EGFP mRNA LNP, EGFP expression in liver; format: in vivo; details: 24 h, female BALB/c mice (n = 4)
Method: At 24 h post-dose, the novel lipid formulations reported dose-dependent increases in EGFP expression in the liver (Table 32).

[6] = Lipid clearance from liver over time after EGFP mRNA LNP (LC-MS); format: in vivo; details: IV 0.5 mg/kg EGFP mRNA LNP, female BALB/c mice (n = 4)
Method: as §1
At various timepoints post-dose, lipid levels were assessed in the liver. Some novel ionizable lipids reported more rapid clearance rates compared to the benchmark (Table 33).

[7] = Table 1, luciferase mRNA LNP 1.6:54.6:32.8:10.9
[8] = Table 2, luciferase mRNA LNP 1.6:54.6:32.8:10.9
[9] = Table 3, luciferase mRNA LNP 1.6:54.6:32.8:10.9
[10] = Table 4, luciferase mRNA LNP 1.6:54.6:32.8:10.9
[11] = Table 5, luciferase mRNA LNP 1.6:54.6:32.8:10.9
[12] = Table 6, luciferase mRNA LNP 1.6:54.6:32.8:10.9
[13] = Table 7, luciferase mRNA LNP 1.6:54.6:32.8:10.9

CCCCC/C=C\CCCC(CCC/C=C\CCCCC)C(CCC/C=C\CCCCC)OC(=O)CCCCN(C)C (stereo not drawn) [Compound 13-B43, reference compound]
Final Product % EE [1, 7]: 94% | Final Product PDI [1, 7]: 0.13 | Final Product Z-avg ([1]; Table 1, luciferase mRNA LNP 1.6:54.6:32.8:10.9 PEG2000-C-DMA:Ionizable lipid:Cholesterol:DSPC): 70 nm | Final Product % EE [1, 8]: 99% | Final Product PDI [1, 8]: (0.03) | Final Product Z-avg [1, 8]: 72 nm | Final Product % EE [1, 9]: 99% | Final Product PDI [1, 9]: 0.06 | Final Product Z-avg [1, 9]: 72 nm | Final Product % EE [1, 10]: 98% | Final Product PDI [1, 10]: 0.07 | Final Product Z-avg [1, 10]: 72 nm | Final Product % EE [1, 11]: 98% | Final Product PDI [1, 11]: 0.06 | Final Product Z-avg [1, 11]: 69 nm | Final Product % EE [1, 12]: 99% | Final Product PDI [1, 12]: 0.07 | Final Product Z-avg [1, 12]: 77 nm | Final Product % EE [1, 13]: 98% | Final Product PDI [1, 13]: 0.06 | Final Product Z-avg [1, 13]: 74 nm | Final Product % EE ([2]; Table 20): 98% | Final Product PDI ([2]; Table 20): 0.07 | Final Product Z-avg ([2]; Table 20): 75 nm | Final Product % EE ([2]; Table 21): 97% | Final Product PDI ([2]; Table 21): 0.08 | Final Product Z-avg ([2]; Table 21): 75 nm | Final Product % EE ([2]; Table 22): 97% | Final Product PDI ([2]; Table 22): 0.08 | Final Product Z-avg ([2]; Table 22): 73 nm | Final Product % EE ([2]; Table 23): 98% | Final Product PDI ([2]; Table 23): 0.15 | Final Product Z-avg ([2]; Table 23): 76 nm | Parent ionizable lipid remaining in liver, Average ([3]; Table 16, female BALB/c mice (n = 4)): 22.64 nmol/g liver | Parent ionizable lipid remaining in liver, Average ([3]; Table 17, female mice (n = 4)): 43.87 nmol/g liver | Parent ionizable lipid remaining in liver, Average ([3]; Table 18, female BALB/c mice (n = 4)): 63.32 nmol/g liver | Parent ionizable lipid remaining in liver, Average ([4]; 0.25 h post-dose): 29.17 nmol/g liver | Parent ionizable lipid remaining in liver, Average ([4]; 1 h post-dose): 46.37 nmol/g liver | Parent ionizable lipid remaining in liver, Average ([4]; 3 h post-dose): 63.61 nmol/g liver | Parent ionizable lipid remaining in liver, Average ([4]; 6 h post-dose): 45.23 nmol/g liver | Parent ionizable lipid remaining in liver, Average ([4]; 24 h post-dose): 40.01 nmol/g liver | Parent ionizable lipid remaining in liver, Average ([4]; 168 h post-dose): 34.42 nmol/g liver | EGFP expression ([5]; 0.3 mg/kg IV): 3.65e+07 pg EGFP/g liver | EGFP expression ([5]; 1 mg/kg IV): 1.88e+08 pg EGFP/g liver | EGFP expression ([5]; 3 mg/kg IV): 4.4e+08 pg EGFP/g liver | Parent ionizable lipid remaining in liver, Average ([6]; 0.25 h post-dose): 29.8 nmol/g liver | Parent ionizable lipid remaining in liver, Average ([6]; 1 h post-dose): 31.2 nmol/g liver | Parent ionizable lipid remaining in liver, Average ([6]; 3 h post-dose): 40.2 nmol/g liver | Parent ionizable lipid remaining in liver, Average ([6]; 6 h post-dose): 45.2 nmol/g liver | Parent ionizable lipid remaining in liver, Average ([6]; 24 h post-dose): 26.4 nmol/g liver | Parent ionizable lipid remaining in liver, Average ([6]; 168 h post-dose): 25.6 nmol/g liver
